According to ChEMBL document CHEMBL4270599, “Synthesis of a 3'-C-ethynyl-β-d-ribofuranose purine nucleoside library: Discovery of C7-deazapurine analogs as potent antiproliferative nucleosides” (Eur J Med Chem, 2018):

Assays:
Type in all cases: functional
MOLT-4 = assay: Cytotoxicity against human MOLT4 cells after 48 hrs by SRB assay; conditions: MOLT-4, 48 h
SF-268 = assay: Cytotoxicity against human SF268 cells after 48 hrs by SRB assay; conditions: SF-268, 48 h
UACC-257 = assay: Cytotoxicity against human UACC257 cells after 48 hrs by SRB assay; conditions: UACC-257, 48 h
A498 = assay: Cytotoxicity against human A498 cells after 48 hrs by SRB assay; conditions: A498, 48 h
TK-10 = assay: Cytotoxicity against human TK10 cells after 48 hrs by SRB assay; conditions: TK-10, 48 h
NCI-H23 = assay: Growth inhibition of human NCI-H23 cells assessed as cell growth at 10^-8 M incubated for 48 hrs by sulforhodamine B assay relative to control; conditions: NCI-H23, 48 h, read-out: Activity
SW-620 = assay: Growth inhibition of human SW620 cells assessed as cell growth at 10^-8 M incubated for 48 hrs by sulforhodamine B assay relative to control; conditions: SW-620, 48 h, read-out: Activity
SNB-75 [1] = assay: Growth inhibition of human SNB75 cells assessed as cell growth at 10^-8 M incubated for 48 hrs by sulforhodamine B assay relative to control; conditions: SNB-75, 48 h, read-out: Activity
LOX IMVI = assay: Growth inhibition of human LOXIMVI cells assessed as cell growth at 10^-8 M incubated for 48 hrs by sulforhodamine B assay relative to control; conditions: read-out: Activity
SK-MEL-2 = assay: Growth inhibition of human SK-MEL-2 cells assessed as cell growth at 10^-8 M incubated for 48 hrs by sulforhodamine B assay relative to control; conditions: SK-MEL-2, 48 h, read-out: Activity
SK-MEL-28 = assay: Growth inhibition of human SK-MEL-28 cells assessed as cell growth at 10^-8 M incubated for 48 hrs by sulforhodamine B assay relative to control; conditions: SK-MEL-28, 48 h, read-out: Activity
ACHN [2] = assay: Growth inhibition of human ACHN cells assessed as cell growth at 10^-8 M incubated for 48 hrs by sulforhodamine B assay relative to control; conditions: read-out: Activity
PC-3 = assay: Growth inhibition of human PC3 cells assessed as cell growth at 10^-8 M incubated for 48 hrs by sulforhodamine B assay relative to control; conditions: PC-3, 48 h, read-out: Activity
DU-145 [3] = assay: Growth inhibition of human DU145 cells assessed as cell growth at 10^-8 M incubated for 48 hrs by sulforhodamine B assay relative to control; conditions: DU-145, 48 h, read-out: Activity
CCRF-CEM = assay: Growth inhibition of human CCRF-CEM cells assessed as cell growth at 10^-7 M incubated for 48 hrs by sulforhodamine B assay relative to control; conditions: read-out: Activity
HL-60(TB) = assay: Growth inhibition of human HL-60(TB) cells assessed as cell growth at 10^-7 M incubated for 48 hrs by sulforhodamine B assay relative to control; conditions: HL-60, 48 h, read-out: Activity
EKVX = assay: Growth inhibition of human EKVX cells assessed as cell growth at 10^-7 M incubated for 48 hrs by sulforhodamine B assay relative to control; conditions: read-out: Activity
NCI-H460 = assay: Growth inhibition of human NCI-H460 cells assessed as cell growth at 10^-7 M incubated for 48 hrs by sulforhodamine B assay relative to control; conditions: NCI-H460, 48 h, read-out: Activity
COLO 205 = assay: Growth inhibition of human COLO205 cells assessed as cell growth at 10^-7 M incubated for 48 hrs by sulforhodamine B assay relative to control; conditions: COLO 205, 48 h, read-out: Activity
DU-145 [4] = assay: Growth inhibition of human DU145 cells assessed as cell growth at 10^-7 M incubated for 48 hrs by sulforhodamine B assay relative to control; conditions: DU-145, 48 h, read-out: Activity
MDA-MB-231 = assay: Growth inhibition of human MDA-MB-231 cells assessed as cell growth at 10^-7 M incubated for 48 hrs by sulforhodamine B assay relative to control; conditions: MDA-MB-231, 48 h, read-out: Activity
K562 = assay: Growth inhibition of human K562 cells assessed as cell growth at 10^-6 M incubated for 48 hrs by sulforhodamine B assay relative to control; conditions: K562, 48 h, read-out: Activity
HCT-15 [5] = assay: Growth inhibition of human HCT15 cells assessed as cell growth at 10^-6 M incubated for 48 hrs by sulforhodamine B assay relative to control; conditions: HCT-15, 48 h, read-out: Activity
SF-295 = assay: Growth inhibition of human SF295 cells assessed as cell growth at 10^-6 M incubated for 48 hrs by sulforhodamine B assay relative to control; conditions: SF-295, 48 h, read-out: Activity
SNB-75 [6] = assay: Growth inhibition of human SNB75 cells assessed as cell growth at 10^-6 M incubated for 48 hrs by sulforhodamine B assay relative to control; conditions: SNB-75, 48 h, read-out: Activity
M14 = assay: Growth inhibition of human M14 cells assessed as cell growth at 10^-6 M incubated for 48 hrs by sulforhodamine B assay relative to control; conditions: M14, 48 h, read-out: Activity
Hs-578T = assay: Growth inhibition of human Hs 578T cells assessed as cell growth at 10^-6 M incubated for 48 hrs by sulforhodamine B assay relative to control; conditions: read-out: Activity
HCT-15 [7] = assay: Growth inhibition of human HCT15 cells assessed as cell growth at 10^-5 M incubated for 48 hrs by sulforhodamine B assay relative to control; conditions: HCT-15, 48 h, read-out: Activity
OVCAR-3 = assay: Growth inhibition of human OVCAR3 cells assessed as cell growth at 10^-4 M incubated for 48 hrs by sulforhodamine B assay relative to control; conditions: OVCAR-3, 48 h, read-out: Activity
NCI/ADR-RES = assay: Growth inhibition of human NCI/ADR-RES cells assessed as cell growth at 10^-4 M incubated for 48 hrs by sulforhodamine B assay relative to control; conditions: read-out: Activity
ACHN [8] = assay: Growth inhibition of human ACHN cells assessed as cell growth at 10^-4 M incubated for 48 hrs by sulforhodamine B assay relative to control; conditions: read-out: Activity
UACC-62 = assay: Growth inhibition of human UACC62 cells assessed as cell growth at 10^-6 M incubated for 48 hrs by sulforhodamine B assay relative to control; conditions: UACC-62, 48 h, read-out: Activity
786-0 = assay: Cytotoxicity against human 786-0 cells after 48 hrs by SRB assay; conditions: 786-0, 48 h
[9] = read-out: LC50 (the source's name)

With C#C[C@@]1(O)[C@@H](CO)O[C@@H](n2cc(I)c3c(N)ncnc32)[C@@H]1O the GI50 (MOLT-4; read-out: GI50) was 0.0489 to 0.108 µM, the TGI (MOLT-4; read-out: TGI) was 0.831 µM and the CC50 (MOLT-4; read-out: pLC50 (the source's name) (converted)) was greater than 100 µM. The TGI (MOLT-4; read-out: pTGI (converted)) was 0.832 µM, the GI50 (SF-268; read-out: GI50) was 0.941 to 1.28 µM and the CC50 (SF-268; [9]) was greater than 100 µM. It also gave a TGI (SF-268; read-out: TGI) of 32.2 to 77.3 µM, a GI50 (UACC-257; read-out: GI50) of 2.18 to 2.5 µM and a CC50 (UACC-257; [9]) greater than 100 µM. For the same compound, the TGI (UACC-257; read-out: TGI) was 18.6 to 41.5 µM, the GI50 (A498; read-out: GI50) was 0.211 to 0.453 µM and the CC50 (A498; [9]) was 4.69 to 6.4 µM. It also gave a TGI (A498; read-out: TGI) of 1.03 to 1.98 µM, a GI50 (TK-10; read-out: GI50) of 0.551 to 0.572 µM and a CC50 (TK-10; [9]) greater than 100 µM. For the same compound, the TGI (TK-10; read-out: TGI) was 5.51 µM, the TGI (TK-10; read-out: pTGI (converted)) was 5.5 µM and the growth at 0.01 µM (NCI-H23) was 87 to 91%. For the same compound, the growth at 0.01 µM (SW-620) was 85 to 86%, the growth at 0.01 µM (SNB-75 [1]) was 74 to 83% and the growth at 0.01 µM (LOX IMVI) was 85 to 93%. For the same compound, the growth at 0.01 µM (SK-MEL-2) was 84 to 101%, the growth at 0.01 µM (SK-MEL-28) was 88 to 97% and the growth at 0.01 µM (ACHN [2]) was 98%. The growth at 0.01 µM (PC-3) was 81 to 84%, the growth at 0.01 µM (DU-145 [3]) was 91 to 94% and the growth at 0.1 µM (CCRF-CEM) was 72 to 74%. The growth at 0.1 µM (HL-60(TB)) was 16 to 43%, the growth at 0.1 µM (EKVX) was 69 to 75% and the growth at 0.1 µM (NCI-H460) was 37 to 56%. The growth at 0.1 µM (COLO 205) was 35 to 63%, the growth at 0.1 µM (DU-145 [4]) was 50 to 57% and the growth at 0.1 µM (MDA-MB-231) was 60%. It also gave a growth at 1 µM (K562) of 17 to 22%, a growth at 1 µM (HCT-15 [5]) of 11 to 20% and a growth at 1 µM (SF-295) of 31 to 35%. It also gave a growth at 1 µM (SNB-75 [6]) of 27 to 39%, a growth at 1 µM (M14) of 38 to 43% and a growth at 1 µM (Hs-578T) of 38 to 53%. For the same compound, the growth at 10 µM (HCT-15 [7]) was 2 to 3%, the growth at 100 µM (OVCAR-3) was 1 to 2% and the growth at 100 µM (NCI/ADR-RES) was -2%. For the same compound, the growth at 100 µM (ACHN [8]) was 1%, the growth at 1 µM (UACC-62) was 40 to 43% and the GI50 (786-0; read-out: GI50) was 0.236 to 0.334 µM. For the same compound, the TGI (786-0; read-out: TGI) was 3.24 µM, the LC50 (lethal concentration, 50% cell kill) (786-0; read-out: pLC50 (converted)) was greater than 100 µM and the TGI (786-0; read-out: pTGI (converted)) was 3.24 µM.
